Source: patent US8658611B2, “Apoptosis-inducing agent for prostate cancer cells” (priority 2005, dated 2014)

Experiments:
[1] = test system: prostate cancer cells PC3; test: TUNEL staining after Ad-REIC plus HSP70 inhibitor or inducer; assay type: cell-based, human; settings: Ad-REIC 20 MOI, agent 250 mM added 24 hours later, TUNEL 48 hours later
Method: Normal cells OUMS 24 (human immortalized fibroblast) and prostate cancer cells PC3 were used for comparison. The cells were infected with Ad-REIC at 20 MOI. 24 hours later, an HSP70 inhibitor (heat shock protein inhibitor I, CALBIOCHEM, BIOCHEMICALS) and an HSP70 inducer (Geranyl-Geranyl Acetone) (250 mM each) were separately added to a culture solution. 48 hours later, TUNEL staining was performed to determine influence upon apoptosis. FIGS. 12 and 13 show staining images for OUMS24 and of PC3, respectively. In FIGS. 12 and 13, images on the left side indicate TUNEL-staining results and images on the right side indicate DAPI-staining results. […] That is, apoptosis was induced in normal cells with the use of the HSP70 inhibitor in combination. On the other hand, apoptosis expression was inhibited in cancer cells with the use of the HSP70 inducer in combination. Further, apoptosis induction was promoted with the use of the HSP70 inhibitor in combination.

[2] = test system: Normal cells OUMS 24 (human immortalized fibroblast); test: as above; assay type: cell-based; settings: OUMS24; Ad-REIC 20 MOI; agent 250 mM added 24 hours later; TUNEL 48 hours later

Which results are given for `O=CN1CC/C(=C\c2ccc3c(c2)OCO3)C1=O` [HSP70 inhibitor]?
TUNEL-positive cells with combined use with Ad-REIC, versus Ad-REIC alone [1]: greater than that obtained with the use of Ad-REIC alone; TUNEL-positive cells with combined use with Ad-REIC [2]: a large number of TUNEL-positive cells
